Measurements published in the supplement of paper PMC10307832.

What was measured:
Test in all cases: relative viability (nuclei count vs DMSO), 5 days (fraction); higher = more cells survive
LK-2 = system: LK-2
Procedure, shortened: (§1)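 Relative viability equals treated-well nuclei counts divided by vehicle-well nuclei counts. Counts came from 4× images of lung cancer cell lines grown in 1536-well plates for 5 days after pin-tool dosing on the day after seeding. Dosing used one drug alone or a fixed anchor-drug dose plus five library-drug doses (not always all listed) in √10 steps, and values are medians of duplicate plates.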

NCI-H596 = system: NCI-H596
Procedure, shortened: as §1

NCI-H1975 = system: NCI-H1975
Procedure, shortened: as §1

EMC-BAC-2 = system: EMC-BAC-2
Procedure, shortened: as §1

NCI-H520 = system: NCI-H520
Procedure, shortened: as §1

NCI-H441 = system: NCI-H441
Procedure, shortened: as §1

NCI-H2170 = system: NCI-H2170
Procedure, shortened: as §1

H3255 = system: H3255
Procedure, shortened: as §1

ChaGo-K-1 = system: ChaGo-K-1
Procedure, shortened: as §1

A-427 = system: A-427
Procedure, shortened: as §1

COR-L 105 = system: COR-L 105
Procedure, shortened: as §1

## COc1cc(N2CCC(C(N)=O)CC2)ccc1Nc1nc(N)c(Cl)c(Nc2ccccc2S(=O)(=O)C(C)C)n1 [HG-5-88-01] + Cc1cc(Nc2cc(N3CCN(C)CC3)nc(Sc3ccc(NC(=O)C4CC4)cc3)n2)n[nH]1 [Tozasertib] (partner 0.1 µM)
LK-2; first compound 0.04 µM
  relative viability: 0.171
LK-2; first compound 0.1265 µM
  relative viability: 0.18
LK-2; first compound 0.4 µM
  relative viability: 0.14
LK-2; first compound 1.265 µM
  relative viability: 0.18
LK-2; first compound 4 µM
  relative viability: 0.16
NCI-H596; first compound 0.04 µM
  relative viability: 0.955
NCI-H596; first compound 0.1265 µM
  relative viability: 0.907
NCI-H596; first compound 0.4 µM
  relative viability: 0.877
NCI-H596; first compound 1.265 µM
  relative viability: 1.09
NCI-H596; first compound 4 µM
  relative viability: 1
NCI-H1975; first compound 0.04 µM
  relative viability: 0.815
NCI-H1975; first compound 0.1265 µM
  relative viability: 0.715
NCI-H1975; first compound 0.4 µM
  relative viability: 0.565
NCI-H1975; first compound 1.265 µM
  relative viability: 0.251
NCI-H1975; first compound 4 µM
  relative viability: 0.143
EMC-BAC-2; first compound 0.04 µM
  relative viability: 0.296
EMC-BAC-2; first compound 0.1265 µM
  relative viability: 0.288
EMC-BAC-2; first compound 0.4 µM
  relative viability: 0.261
EMC-BAC-2; first compound 1.265 µM
  relative viability: 0.264
EMC-BAC-2; first compound 4 µM
  relative viability: 0.24
NCI-H520; first compound 0.04 µM
  relative viability: 0.457
NCI-H520; first compound 0.1265 µM
  relative viability: 0.433
NCI-H520; first compound 0.4 µM
  relative viability: 0.435
NCI-H520; first compound 1.265 µM
  relative viability: 0.414
NCI-H520; first compound 4 µM
  relative viability: 0.452
NCI-H441; first compound 0.04 µM
  relative viability: 0.696
NCI-H441; first compound 0.1265 µM
  relative viability: 0.632
NCI-H441; first compound 0.4 µM
  relative viability: 0.638
NCI-H441; first compound 1.265 µM
  relative viability: 0.422
NCI-H441; first compound 4 µM
  relative viability: 0.332
NCI-H2170; first compound 0.04 µM
  relative viability: 0.768
NCI-H2170; first compound 0.1265 µM
  relative viability: 0.67
NCI-H2170; first compound 0.4 µM
  relative viability: 0.678
NCI-H2170; first compound 1.265 µM
  relative viability: 0.464
NCI-H2170; first compound 4 µM
  relative viability: 0.635
H3255; first compound 0.04 µM
  relative viability: 0.71
H3255; first compound 0.1265 µM
  relative viability: 0.791
H3255; first compound 0.4 µM
  relative viability: 0.616
H3255; first compound 4 µM
  relative viability: 0.731
ChaGo-K-1; first compound 0.04 µM
  relative viability: 0.213
ChaGo-K-1; first compound 0.1265 µM
  relative viability: 0.25
ChaGo-K-1; first compound 0.4 µM
  relative viability: 0.155
ChaGo-K-1; first compound 1.265 µM
  relative viability: 0.229
ChaGo-K-1; first compound 4 µM
  relative viability: 0.211
A-427; first compound 0.04 µM
  relative viability: 0.193
A-427; first compound 0.1265 µM
  relative viability: 0.208
A-427; first compound 0.4 µM
  relative viability: 0.158
A-427; first compound 1.265 µM
  relative viability: 0.184
A-427; first compound 4 µM
  relative viability: 0.18
COR-L 105; first compound 0.04 µM
  relative viability: 0.377
COR-L 105; first compound 0.1265 µM
  relative viability: 0.379
COR-L 105; first compound 0.4 µM
  relative viability: 0.317
COR-L 105; first compound 1.265 µM
  relative viability: 0.312
COR-L 105; first compound 4 µM
  relative viability: 0.42
